From patent US7713939B2, “Illudin analogs useful as antitumor agents” (priority 1996, dated 2010)

Experiments:
[1] = tested on: MV522 (human lung carcinoma cell line); assay: 2 hour exposure, [3H]-thymidine incorporation; format: cell-based
Procedure: (§1) To assess cytotoxic effects, various concentrations of illudins were added to cultures of MV522 (human lung carcinoma cell line) and 8392 (B-cell leukemia/lymphoma) cells for 48 hours, then cell growth/viability was determined by trypan blue exclusion. As an alternative to 48 hour continuous exposure studies, cells were plated in liquid culture in 96 well plates, exposed to various concentrations of illudins for 2 hours, pulsed with [^3H]-thymidine for one to two hours and harvested onto glass filters. The filter papers were added to vials containing scintillation fluid and residual radioactivity determined in a beta (scintillation) counter.

[2] = tested on: 8392 (B-cell leukemia/lymphoma) cells; assay: 48 hour continuous exposure, trypan blue exclusion; format: cell-based; settings: 48 hour exposure
Procedure: as §1

[3] = tested on: MV522 (human lung carcinoma cell line); assay: 48 hour continuous exposure, trypan blue exclusion; format: cell-based; settings: 48 hour exposure
Procedure: as §1

[4] = tested on: 8392 (B-cell leukemia/lymphoma) cells; assay: 2 hour exposure, [3H]-thymidine incorporation; format: cell-based
Procedure: as §1

[5] = tested on: MV522 lung carcinoma line; settings: for efficacy in MV522 xenograft (in words): summary of the in vivo table
Text: Several analogs were chosen for in vivo studies. […] Drug therapy was started 10 days after inoculation on a daily basis via IP route for 5 consecutive days. The animals were monitored for 3 weeks after start of therapy.
BALB/c nu/nu 4-week old female mice weighing 18-22 g were obtained from Simonsen, Inc. (Gilroy, Calif.) and maintained in the athymic mouse colony of the University of California (San Diego, Calif.) under pathogen free conditions using HEPA filter hoods. Animals were provided with sterilized food and water ad libitum in groups of 5 in plastic cages vented with polyester fiber filter covers. Clean, sterilized gowns, glove, face masks, and shoe and hood covers were worn by all personnel handling the animals. All studies were conducted in accordance with guidelines of the NIH “Guide for Care and Use of Animals” and approved by the University Institutional Animal Care and Use Committee (Protocol 3-006-2)
The MV522 lung carcinoma line used for xenograft studies was derived as described by Kelner et al. (Anticancer Res., 15: 867-872; 873-878 (1995)) and maintained in antibiotic-free RPMI 1640 (Mediatech, Herndon, Va.) supplemented with 10% fetal bovine serum and 2 mM glutamine in 37° C. humidified carbon dioxide incubator.
Each animal was earmarked and followed individually throughout the experiments. Mice received s.c. injections of the parental cell line MV522 using 10 million cells/inoculation over the shoulder. Ten days after s.c. implantation of the MV522 cells, when s.c. tumors were approximately 3×3 mm in size, animals received the desired drug and dosage. The effect of the drug on life span was calculated from median survival.
Although MV522 cells kill mice by metastases, primary s.c. tumor growth over the shoulder was monitored starting on the first day of treatment and at weekly intervals thereafter. Tumor size was measured in two perpendicular diameters. Tumor weights were estimated according to the formula w=(width)^2×length/2). Relative weights (RW) were calculated to standardized variability in tumor size among test groups at initiation of treatment using the formula RW=Wt/wi, where Wi is the tumor weight for a given animal at beginning of drug treatment and Wt is tumor weight at a subsequent time. Animals were necropsied, and organs were examined for evidence of metastases.
Comparison of survival curves between groups of animals was by the method of Kaplan and Meir. For comparison of relative tumor weights between multiple groups of animals, ordinary ANOVA followed by Turkey-Kramer multiple Comparison post ANOVA analysis was preformed (Kelner et al. (Aniticancer Res., 15: 867-872; 873-878 (1995)). Probability values (p) less than 0.05 were considered statistically significant.

[6] = tested on: Dunning leukemia; settings: rats with Dunning leukemia; cited from earlier work
[7] = tested on: solid tumor systems; settings: cited from earlier work

## CC(=O)OCOCC1=C(C)C=C2C(=O)C(C)(O)C3(CC3)C(C)=C21 (stereo not shown) [Compound 8]
[1]
  IC50: 870 ± 90 nM
[2]
  IC50: 15.1 ± 2.2 µM
[3]
  IC50: 630 ± 80 nM

## CC1=C2C=CC=C2C(=O)C2(OCCO2)C12CC2 [Compound 33]
[4]
  IC50: 29.9 ± 3.3 µM
[1]
  IC50: > 4000 nM
[3]
  IC50: 4600 ± 200 nM
[5]
  efficacy in MV522 xenograft (in words): effective

## CC1=C(CSCc2ccccc2)C2=C(C)C3(CC3)C(C)(O)C(=O)C2=C1 (stereo not shown) [Compound 24]
[4]
  IC50: 12.8 ± 2.14 µM

## CCOCC1=C(C)C=C2C(=O)C(C)(O)C3(CC3)C(C)=C21 (stereo not shown) [Compound 16]
[5]
  efficacy in MV522 xenograft (in words): effective

## CC1=C(CCCO)C2=C(C)C3(CC3)C(C)(O)C(=O)C2=C1 (stereo not shown) [Compound 9]
[4]
  IC50: 47.1 ± 11 µM
[2]
  IC50: 15.1 ± 2.2 µM

## CC1=C(COCCO)C2=C(C)C3(CC3)C(C)(O)C(=O)C2=C1 (stereo not shown) [Compound 22]
[4]
  IC50: 31.7 ± 1.4 µM
[3]
  IC50: 680 ± 180 nM

## CO[C@@]12[C@H](COC(N)=O)C3=C(C(=O)C(C)=C(N)C3=O)N1C[C@@H]1N[C@@H]12 [Mitomycin C, reference compound]
[5]; mouse, in vivo
  day before which all animals succumbed: < 31 days

## COC(=O)CSCC1=C(C)C=C2C(=O)C(C)(O)C3(CC3)C(C)=C21 (stereo not shown) [Compound 25]
[4]
  IC50: > 25 µM

## CC1=C2C(=CC3(C)COCOC23)C(=O)C(C)(O)C12CC2 (stereo not shown) [Compound 14]
[4]
  IC50: 9.65 ± 1.2 µM
[1]
  IC50: 115 ± 30 nM

## CC1=C(CC2CC(C=O)CC(C=O)C2O)C2=C(C)C3(CC3)C(C)(O)C(=O)C2=C1 (mixture of isomers) [Compound 13]
[1]
  IC50: 5120 ± 650 nM

## CC1=C(CCC=O)C2=C(C)C3(CC3)C(C)(O)C(=O)C2=C1 (stereo not shown) [Compound 10]
[4]
  IC50: 29.4 ± 1.6 µM
[2]
  IC50: 14.5 ± 1.65 µM

## CC1=C(CSCC(O)CO)C2=C(C)C3(CC3)C(C)(O)C(=O)C2=C1 (stereo not shown) [Compound 32]
[4]
  IC50: > 50 µM
[1]
  IC50: 595 ± 185 nM
[5]
  efficacy in MV522 xenograft (in words): effective

## CC1=C2C(=CC(C)(C)[C@@H]2O)C(=O)[C@](C)(O)C12CC2 [Illudin M]
[6]
  life span: significantly increased
[7]
  therapeutic index: low

## COC(C)(C)OCC1=C(C)C=C2C(=O)C(C)(O)C3(CC3)C(C)=C21 (stereo not shown) [Compound 21]
[4]
  IC50: 34.3 ± 9.4 µM
[3]
  IC50: 930 ± 250 nM
[5]
  efficacy in MV522 xenograft (in words): more efficacious than HMAF

## CC1=C(CSc2ccc(O)cc2)C2=C(C)C3(CC3)C(C)(O)C(=O)C2=C1 (stereo not shown) [Compound 23]
[4]
  IC50: 138 ± 13 µM
[1]
  IC50: 2920 ± 1140 nM
[3]
  IC50: 2750 ± 510 nM

## CC1=C(C=O)C2=C(C)C3(CC3)C(C)(O)C(=O)C2=C1 (stereo not shown) [Compound 11]
[4]
  IC50: > 100 µM
[1]
  IC50: 4900 ± 900 nM
[2]
  IC50: 40.4 ± 6.7 µM
